{"source": "patent EP0334369B1", "about": "“Antiarteriosclerotic agent” (DAIICHI PHARMACEUTICAL CO., LTD., priority 1988, dated 1989)", "test_system": "Vascular smooth muscle cells (VSMC)", "test": "Determination of DT (time required for doubling the number of cells) of vascular smooth muscle culture cells", "type": "cell-based", "settings": "Treated Group; VSMC from aorta of SHR, 48-hour cultivation with Compound A; concentration not given; P < 0.02 vs. control group by Student's t-test; hydrate", "procedure": "Effects on Proliferation of Vascular Smooth Muscle Culture Cells Vascular smooth muscle cells (hereinafter referred to as VSMC) were separated from the aorta of seven 7-week-old male SHR and cultured according to the explant method [cf. Ross, R.J. Cell Biol., Vol. 50, 172 (1971)]. Culture cells of passage Nos. 4 to 10 were used for testing. The proliferation ability of VSMC was evaluated in terms of time required for doubling the number of the cells (hereinafter referred to as DT) and ³H-TU according to the following test methods. 1) Determination of DT: VSMC (about 5 x 10⁴ cells) were cultured on a plate for 24 hours. Compound A was added to the culture, and cultivation was continued for an additional period of 48 hours. The number of cells before the addition of Compound A and after the 48-hour cultivation were counted by means of a light microscope, and DT was obtained therefrom by the equation: [formula] wherein t₁ is the time at which the number of cells before addition of Compound A is counted; t₂ is the time at which the number of cells after addition of Compound A is counted; N₁ is the number of cells at t₁; and N₂ is the number of cells at t₂.", "note": "Several values for one entry are separate records, joined by “and”; a condition that tells them apart may be missing. Equal entries are not always repeated. Structures can show the parent of a compound that is named as a salt."}
{"compound": "O=C(O)c1ccc2c(c1)CCC(Cn1ccnc1)C2", "note": "(stereo not shown) [Compound A, 6-(1-Imidazolylmethyl)-5,6,7,8-tetrahydro-2-naphthalenecarboxylic acid hydrochloride 1/2 hydrate]", "values": [{"measurement": "DT", "value": "26.16 h and 27.81 h and 26.59 h and 28.94 h and 21.66 h and 24.41 h"}]}
